Experimental data published in article PMC3528345 (Cancer research, 2012).
pIC50: −log10 of the molar value.

Biological target: PARP1 (Gallus gallus, UniProt P26446)
Sequence (P26446 whole entry): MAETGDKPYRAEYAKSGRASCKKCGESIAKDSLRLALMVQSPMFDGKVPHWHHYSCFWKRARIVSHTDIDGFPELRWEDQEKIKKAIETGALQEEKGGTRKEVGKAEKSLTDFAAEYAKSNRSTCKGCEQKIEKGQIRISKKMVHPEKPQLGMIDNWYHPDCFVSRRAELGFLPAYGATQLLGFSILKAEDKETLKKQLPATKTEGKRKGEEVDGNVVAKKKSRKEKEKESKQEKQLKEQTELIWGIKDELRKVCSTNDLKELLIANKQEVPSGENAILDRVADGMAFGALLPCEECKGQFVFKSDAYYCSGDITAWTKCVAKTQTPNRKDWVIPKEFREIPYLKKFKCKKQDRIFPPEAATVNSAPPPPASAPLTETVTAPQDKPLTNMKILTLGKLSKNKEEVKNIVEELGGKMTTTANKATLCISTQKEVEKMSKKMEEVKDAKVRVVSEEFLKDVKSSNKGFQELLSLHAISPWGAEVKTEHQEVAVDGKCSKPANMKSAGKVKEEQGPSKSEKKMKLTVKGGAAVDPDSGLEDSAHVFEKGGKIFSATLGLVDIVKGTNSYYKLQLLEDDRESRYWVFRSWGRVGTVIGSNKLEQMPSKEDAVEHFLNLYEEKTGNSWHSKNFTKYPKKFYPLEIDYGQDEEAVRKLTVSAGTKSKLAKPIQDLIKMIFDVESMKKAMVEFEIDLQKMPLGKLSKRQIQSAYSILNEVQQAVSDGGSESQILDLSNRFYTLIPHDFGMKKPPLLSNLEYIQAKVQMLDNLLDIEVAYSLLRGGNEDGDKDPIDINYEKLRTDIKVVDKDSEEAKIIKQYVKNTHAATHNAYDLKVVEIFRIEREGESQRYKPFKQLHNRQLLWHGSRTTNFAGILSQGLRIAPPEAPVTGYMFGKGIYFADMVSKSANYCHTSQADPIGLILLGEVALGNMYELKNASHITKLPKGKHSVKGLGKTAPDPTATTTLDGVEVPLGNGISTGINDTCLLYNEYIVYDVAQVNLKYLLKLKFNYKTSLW

NC(=O)c1cccc2cn(-c3ccc([C@@H]4CCCNC4)cc3)nc12 [MK-4827] was tested. Which pIC50 did it give?
Its pIC50 is 7.30.

How did the pIC50 turn out when C[C@]1(c2nc3c(C(N)=O)cccc3[nH]2)CCCN1 [veliparib] was run?
The pIC50 was 7.98.
